Test results published in US4923853A, “Process for enhancing the activity of plant protecting agents by using cyclodextrin” (Chinoin Gyogyszer Es Vegyeszeti Termekek Gyara R.T., priority 1985, dated 1990).
Values after ≈ are worked out from the molar mass of the structure shown.

Key:
[1] = cited from earlier work; for volatility of the active ingredient: on forming complexes with cyclodextrin
Sclerotinia sclerotiorum = assay: Fungistatical effect of β-cyclodextrin (agar, colony diameter); assay type: cell-based
Procedure: (§1) The fungistatical activity of cyclodextrins has never been disclosed in prior art.
(§2) Agar nutrient media comprising 0.1-0.2 -0.5-1.0-2.0-5.0-10.0-20.0-100.0- 200.0-400.0-800.0-1200.0-1500.0-2000.0-3000.0 μg β-cyclodextrin/ml, respectively, are prepared in Petri-dishes. Mycelium discs are cut out from surface cultures of three test fungi and are placed onto the agar nutrient media in the Petri-dishes. Incubation is carried out in a thermostate whereupon the increase of the diameter of the colonies is determined and compared to that of the control. The morphology of the colonies and the diffusion of the dye-substance produced by the fungi into the nutrient medium are evaluated as well.
(§3) The fungistatical effect of cyclodextrin manifests itself in the changed morphology, structure and color of the colonies and in the amount of the dyestuff penetrated into the nutrient medium. However at higher dose range the effect of cyclodextrin is already of a quantitative nature, thus the decrease of the diameter of the colonies can be measured and the amount of the biomass formed is reduced to a rate which can be evaluated (Table 1).

Rhizoctonia solani = assay: as above; assay type: cell-based
Procedure: as §1, §2, §3

Alternaria tenuis = assay: as above; assay type: cell-based; conditions: Alternaria alternata
Procedure: as §1, §2, §3

three test fungi = assay: Fungistatical effect of β-cyclodextrin, morphology and surfacial cultures; assay type: cell-based; conditions: surfacial cultures
Procedure: as §2, §3

wheat powdery mildew = assay: In vivo test on wheat-powdery mildew (host-parasite)
Procedure: In vivo tests are carried out on wheat-powdery mildew (host-parasite) by using a combination of phenarimol [2,4'-dichloro-α--(pyrimidine-5-yl)-diphenyl-ethanol] and β-cyclodextrin. The tests are carried out in three replicates in phytotrone under usual experimental system and environmental conditions (20° C., humidity 90%, light intensity 9000 lux.) In culturing dishes (diameter 11 cm) as average 160 plants (5-6 cm stage) are treated with 8 ml of stable aqueous suspensions comprising the test material. The inhibition activity is calculated on the basis of the Hinfner-Papp formula by using the infectedness index.

[2] = cited from earlier work
[3] = cited from earlier work; for duration of pesticide activity: on forming complexes with cyclodextrin
test fungi = assay: Fungicidal activity of metomeclan with cyclodextrin, general statement; assay type: cell-based
Procedure: The following tests substantiate the surprising synergism between known fungicides and β-cyclodextrin. Stable, highly dispersed aqueous suspensions of the test materials are added to agar nutrient media in the desired concentration (0.1-200 μg/ml), whereupon the nutrient media are poured into Petri-dishes. Mycelium discs are cut out from the surfacial cultures of the test fungi and the discs are placed into the Petri-dishes containing the test materials. Incubation is carried out in thermostate whereupon the increase of the diameter of the colonies is measured and compared to that of the control. The tests are carried out in three replicates.

[4] = Solubility of benomyl from various materials incl. Fundazol under the effect of β-cyclodextrin; assay type: physicochemical
Procedure: Benomyl is put on the market under the commercial name Fundazol 50 WP; benomyl active ingredient content: 50%. In Table 3 the solubility data of benomyl, a mixture of benomyl and cyclodextrin, Fundazol 50 WP, and a mixture of Fundazol 50 WP and cyclodextrin are shown. In each experiment […] of the test substance are weighed in and shaken at 25° C. Benomyl is a 100% active ingredient; the benomyl content of the benomyl/cyclodextrin mixture amounts to 17.3%; the benomyl content of Fundazol 50 WP is 50%; the benomyl content of the mixture of Fundazol 50 WP and cyclodextrin amounts to 8.65%.
2000 μg/ml of solid material are weighed in which corresponds to the following amounts of benomyl:
in the case of benomyl: 2000 μg/ml
in the case of benomyl+β-CD: 350 μg/ml++1650 μg β-CD
in the case of Fundazol 50 WP: 1000 μg/ml
in the case of Fundazol 50 WP+β-CD: 175 μg/ml++1650 μg β-CD.

[5] = Solubility of benomyl under the effect of β-cyclodextrin (shaking in water, UV); assay type: physicochemical; conditions: water 25° C.; for solubility thermodynamic at 10 min / solubility thermodynamic at 20 min / solubility thermodynamic at 40 min / solubility thermodynamic at 80 min / solubility thermodynamic at 2 h: water, read-out: Amount of dissolved benomyl
Procedure: (Benomyl and benomyl+β-cyclodextrin, respectively, are shaken in water at 25° C., the samples are filtered and the dissolved benomyl contents of the filtrates are determined by UV spectrophotometry).

[6] = 10 minutes, weighed in 1000 μg/ml benomyl, or 170 μg benomyl + 830 μg/ml β-CD
[7] = 10 minutes, weighed in 5000 μg/ml benomyl, or 850 μg benomyl + 4150 μg/ml β-CD
[8] = 20 minutes, weighed in 1000 μg/ml benomyl, or 170 μg benomyl + 830 μg/ml β-CD
[9] = 20 minutes, weighed in 5000 μg/ml benomyl, or 850 μg benomyl + 4150 μg/ml β-CD
[10] = 40 minutes, weighed in 1000 μg/ml benomyl, or 170 μg benomyl + 830 μg/ml β-CD
[11] = 40 minutes, weighed in 5000 μg/ml benomyl, or 850 μg benomyl + 4150 μg/ml β-CD
[12] = 80 minutes, weighed in 1000 μg/ml benomyl, or 170 μg benomyl + 830 μg/ml β-CD
[13] = 80 minutes, weighed in 5000 μg/ml benomyl, or 850 μg benomyl + 4150 μg/ml β-CD
[14] = 120 minutes, weighed in 1000 μg/ml benomyl, or 170 μg benomyl + 830 μg/ml β-CD
[15] = 120 minutes, weighed in 5000 μg/ml benomyl, or 850 μg benomyl + 4150 μg/ml β-CD

SMILES: N#Cc1c(Cl)cccc1Cl [dichlobenyl, 2,6-dichloro-benzonitrile]
- sublimation ([1]; uncomplexed, inhibited by forming complex with cyclodextrin): easily sublimates

SMILES: OC[C@H]1O[C@@H]2O[C@H]3[C@H](O)[C@@H](O)[C@@H](O[C@H]4[C@H](O)[C@@H](O)[C@@H](O[C@H]5[C@H](O)[C@@H](O)[C@@H](O[C@H]6[C@H](O)[C@@H](O)[C@@H](O[C@H]7[C@H](O)[C@@H](O)[C@@H](O[C@H]8[C@H](O)[C@@H](O)[C@@H](O[C@H]1[C@H](O)[C@H]2O)O[C@@H]8CO)O[C@@H]7CO)O[C@@H]6CO)O[C@@H]5CO)O[C@@H]4CO)O[C@@H]3CO [β-cyclodextrin]
- inhibition at 200 µg/mL (Sclerotinia sclerotiorum; β-cyclodextrin 200 μg/ml): 12%
- inhibition at 400 µg/mL (Sclerotinia sclerotiorum; β-cyclodextrin 400 μg/ml): 12%
- inhibition at 1500 µg/mL (Sclerotinia sclerotiorum; β-cyclodextrin 1500 μg/ml): 14%
- inhibition at 3000 µg/mL (Sclerotinia sclerotiorum; β-cyclodextrin 3000 μg/ml): 16%
- inhibition at 200 µg/mL (Rhizoctonia solani; β-cyclodextrin 200 μg/ml): 3%
- inhibition at 400 µg/mL (Rhizoctonia solani; β-cyclodextrin 400 μg/ml): 6%
- inhibition at 1500 µg/mL (Rhizoctonia solani; β-cyclodextrin 1500 μg/ml): 17%
- inhibition at 3000 µg/mL (Rhizoctonia solani; β-cyclodextrin 3000 μg/ml): 19%
- inhibition at 200 µg/mL (Alternaria tenuis; β-cyclodextrin 200 μg/ml): 7%
- inhibition at 400 µg/mL (Alternaria tenuis; β-cyclodextrin 400 μg/ml): 10%
- inhibition at 1500 µg/mL (Alternaria tenuis; β-cyclodextrin 1500 μg/ml): 12%
- inhibition at 3000 µg/mL (Alternaria tenuis; β-cyclodextrin 3000 μg/ml): 14%
- formation of the propagative organs (three test fungi): inhibits the formation of the propagative organs

SMILES: OC(c1ccc(Cl)cc1)(c1cncnc1)c1ccccc1Cl (stereo not drawn) [Phenarimol, 2,4'-dichloro-α-(pyrimidine-5-yl)--diphenyl-methanol]
- Inhibition activity % (wheat powdery mildew; phenarimol concentration 0.625 μg/ml): 29.4%
- Inhibition activity % (wheat powdery mildew; phenarimol concentration 1.25 μg/ml): 73.5%
- Inhibition activity % (wheat powdery mildew; phenarimol concentration 2.5 μg/ml): 87.2%
- Inhibition activity % (wheat powdery mildew; phenarimol concentration 5 μg/ml): 99.4%
- Inhibition activity % (wheat powdery mildew; phenarimol concentration 10 μg/ml): 100.0%

SMILES: COC(=O)Nc1nc2ccccc2[nH]1 [methyl-benzimidazole carbamate, 2-carbomethoxyamino-benzimidazole]
- solubility in water [2]: still less soluble in water

SMILES: COP(=O)(OC)OC=C(Cl)Cl [dichlorphos, 2,2--dichlorovinyl-dimethyl-phosphate]
- volatility of the active ingredient [1]: significantly decreased
- duration of pesticide activity [3]: remains sufficient for a longer period of time

SMILES: CCSC(=O)N1CCCCCC1 [molinate, S-ethyl-N,N-hexamethylene-thiocarbamate]
- volatility of the active ingredient [1]: significantly decreased
- duration of pesticide activity [3]: remains sufficient for a longer period of time

SMILES: O=P(O)(O)CCCl
- ethylene release on contacting with plant tissue ([3]; complex with cyclodextrin): long-lasting process

SMILES: COCC1CC(=O)N(c2cc(Cl)cc(Cl)c2)C1=O (centres unmarked) [Metomeclan, 1-(3,5-dichlorophenyl)-3-methoxymethyl-pyrrolidine-2,5-dione]
- solubility in water [2]: insoluble in water
- activity on addition of cyclodextrin (in words) (test fungi): significantly increased

SMILES: COP(=S)(OC)Oc1ccc([N+](=O)[O-])cc1 [Methyl-parathion, 0,0-dimethyl-0-4-nitrophenyl-phosphorothioate]
- stability against light and oxygen ([1]; cyclodextrin complexes): increase the stability against light and oxygen to a considerable extent

SMILES: CCCCNC(=O)n1c(NC(=O)OC)nc2ccccc21 [benomyl, 1-butylcarbamoyl-benzimidazole-2-methyl-carbamate]
- solubility thermodynamic at 10 min ([4]; 10 minutes, shaking in water at 25° C., read-out: Dissolved benomyl): 2 µg/mL (≈ 6.89 µM)
- solubility thermodynamic at 20 min ([4]; 20 minutes, shaking in water at 25° C., read-out: Dissolved benomyl): 5 µg/mL (≈ 17.2 µM)
- solubility thermodynamic at 40 min ([4]; 40 minutes, shaking in water at 25° C., read-out: Dissolved benomyl): 6 µg/mL (≈ 20.7 µM)
- solubility thermodynamic at 80 min ([4]; 80 minutes, shaking in water at 25° C., read-out: Dissolved benomyl): 7 µg/mL (≈ 24.1 µM)
- solubility thermodynamic at 2 h ([4]; 120 minutes, shaking in water at 25° C., read-out: Dissolved benomyl): 8 µg/mL (≈ 27.6 µM)
- solubility thermodynamic at 160 min ([4]; 160 minutes, shaking in water at 25° C., read-out: Dissolved benomyl): 9 µg/mL (≈ 31 µM)
- further increase of the solubility caused by cyclodextrin ([4]; on addition of cyclodextrin, water 25° C.): 1.5-2 -fold
- decomposition when dissolved in water ([2]; to methyl-benzimidazole carbamate): rapidly decomposes
- solubility in water [2]: poorly soluble in water
- Amount of dissolved benomyl, % [5, 6]: 0.2%
- Amount of dissolved benomyl, % [5, 7]: 0.07%
- Amount of dissolved benomyl, % [5, 8]: 0.3%
- Amount of dissolved benomyl, % [5, 9]: 0.08%
- Amount of dissolved benomyl, % [5, 10]: 0.45%
- Amount of dissolved benomyl, % [5, 11]: 0.12%
- Amount of dissolved benomyl, % [5, 12]: 0.5%
- Amount of dissolved benomyl, % [5, 13]: 0.16%
- Amount of dissolved benomyl, % [5, 14]: 0.5%
- Amount of dissolved benomyl, % [5, 15]: 0.19%
- solubility thermodynamic at 10 min [5, 6]: 2 µg/mL
- solubility thermodynamic at 10 min [5, 7]: 3.5 µg/mL
- solubility thermodynamic at 20 min [5, 8]: 3 µg/mL
- solubility thermodynamic at 20 min [5, 9]: 4 µg/mL
- solubility thermodynamic at 40 min [5, 10]: 4.5 µg/mL
- solubility thermodynamic at 40 min [5, 11]: 6 µg/mL
- solubility thermodynamic at 80 min [5, 12]: 5 µg/mL
- solubility thermodynamic at 80 min [5, 13]: 8 µg/mL
- solubility thermodynamic at 2 h [5, 14]: 5 µg/mL
- solubility thermodynamic at 2 h [5, 15]: 9.5 µg/mL

SMILES: CCN(CC)C(=O)SCc1ccc(Cl)cc1 [bentiocarb, S-4-chlorobenzyl-diethylthio carbamate]
- volatility of the active ingredient [1]: significantly decreased
- duration of pesticide activity [3]: remains sufficient for a longer period of time
